Laboratory results from paper PMC9377102, “Toxicity and toxicokinetics of the ethanol extract of Zuojin formula” (BMC Complementary Medicine and Therapies, 2022).
Read-outs that look alike come from different tables or passages of the source.

Tests used:
[1] = test system: diarrhoea-predominant irritable bowel syndrome; conditions: rats, 50 and 100 mg/kg for 14 days; cited from earlier work
[2] = test system: CYP3A4, CYP1A2 and CYP2D6; conditions: cited from earlier work
[3] = test system: thyroid hormone-induced diarrhoea; conditions: rats, 60 mg/kg oral gavage for 7 days; cited from earlier work
[4] = test system: spleen; conditions: mice, intraperitoneal injection 10 mg/kg; cited from earlier work
[5] = cited from earlier work
[6] = test system: CD4+ Th, CD4+CXCR5+ Tfh cells and Foxp3+ Tregs; conditions: mice, intraperitoneal injection 1 mg/kg; cited from earlier work
[7] = test system: CYP3A4, CYP1A2 and CYP2D6; conditions: cited from earlier work; remark: listed apart in the source
[8] = Toxicokinetics test in the satellite groups (UPLC-MS/MS of rat plasma); type: in vivo; conditions: for Systemic exposure after 28 days of administration vs single administration: rats, oral TAZF
Description: SD rats (5 ~ 6 weeks, 3/group/sex) were randomly allocated to three treatment groups and given the same dosage as those in the repeated toxicity experiment for 28 days. […] Carbamazepine was chosen as the internal standard (IS). The blood samples were centrifuged to obtain plasma. Then, 300 μL of acetonitrile containing 40 ng of IS was added to 100 μL of plasma. After vortexing for 1 min, the mixture was centrifuged at 17,000 rpm for 15 min at 4 °C. The supernatant of each sample was injected into a UPLC–MS/MS system for determination. The injection volume was 1 μL. UPLC–MS analysis was performed on a Thermo Fisher Scientific Ultimate 3000 UPLC system (San Jose, USA) and an API 4000 QTRAP mass spectrometer (Foster City, USA) equipped with an ESI source. The mobile phase consisted of 2 solvents: (A) water containing 0.1% formic acid and (B) 100% acetonitrile. For MS, multiple reaction monitoring (MRM) in positive ion mode was used as the scanning mode for the main components and IS in the plasma samples. The dwell time (DT), collision energy (CE), quadrupole 1 pre-rod bias (Q1) and quadrupole 3 pre-rod bias (Q3) are listed in Table 3.

[9] = female SD rats, pure berberine 90 mg/kg orally, previous study, reference not given
[10] = male rats, pure berberine 90 mg/kg
[11] = female rats, Day 1, high dose TAZF 3.7 g/kg by gavage
[12] = female rats, Day 1, highest dose (berberine 72.08, epiberberine 7.42, coptisine 7.42, palmatine 18.26, jatrorrhizine 2.80, columbamine 5.93 mg/kg)
[13] = female rats, Day 1, low dose TAZF 0.4 g/kg by gavage
[14] = female rats, Day 1, lowest dose (berberine 8.01, epiberberine 0.82, coptisine 1.38, palmatine 2.03, jatrorrhizine 0.31, columbamine 0.66 mg/kg)
[15] = female rats, Day 1, middle dose (berberine 24.03, epiberberine 2.47, coptisine 2.47, palmatine 6.09, jatrorrhizine 0.93, columbamine 1.98 mg/kg)
[16] = female rats, Day 28, high dose TAZF 3.7 g/kg by gavage
[17] = female rats, Day 28, highest dose (berberine 72.08, epiberberine 7.42, coptisine 7.42, palmatine 18.26, jatrorrhizine 2.80, columbamine 5.93 mg/kg)
[18] = female rats, Day 28, low dose TAZF 0.4 g/kg by gavage
[19] = female rats, Day 28, lowest dose (berberine 8.01, epiberberine 0.82, coptisine 1.38, palmatine 2.03, jatrorrhizine 0.31, columbamine 0.66 mg/kg)
[20] = female rats, Day 28, middle dose (berberine 24.03, epiberberine 2.47, coptisine 2.47, palmatine 6.09, jatrorrhizine 0.93, columbamine 1.98 mg/kg)
[21] = male rats, Day 1, high dose TAZF 3.7 g/kg by gavage
[22] = male rats, Day 1, highest dose (berberine 72.08, epiberberine 7.42, coptisine 7.42, palmatine 18.26, jatrorrhizine 2.80, columbamine 5.93 mg/kg)
[23] = male rats, Day 1, low dose TAZF 0.4 g/kg by gavage
[24] = male rats, Day 1, lowest dose (berberine 8.01, epiberberine 0.82, coptisine 1.38, palmatine 2.03, jatrorrhizine 0.31, columbamine 0.66 mg/kg)
[25] = male rats, Day 1, middle dose (berberine 24.03, epiberberine 2.47, coptisine 2.47, palmatine 6.09, jatrorrhizine 0.93, columbamine 1.98 mg/kg)
[26] = male rats, Day 28, high dose TAZF 3.7 g/kg by gavage
[27] = male rats, Day 28, highest dose (berberine 72.08, epiberberine 7.42, coptisine 7.42, palmatine 18.26, jatrorrhizine 2.80, columbamine 5.93 mg/kg)
[28] = male rats, Day 28, low dose TAZF 0.4 g/kg by gavage
[29] = male rats, Day 28, lowest dose (berberine 8.01, epiberberine 0.82, coptisine 1.38, palmatine 2.03, jatrorrhizine 0.31, columbamine 0.66 mg/kg)
[30] = male rats, Day 28, middle dose (berberine 24.03, epiberberine 2.47, coptisine 2.47, palmatine 6.09, jatrorrhizine 0.93, columbamine 1.98 mg/kg)

In the case of `COc1ccc2cc3[n+](cc2c1OC)CCc1cc2c(cc1-3)OCO2` [berberine], the “Effect on diarrhoea-predominant irritable bowel syndrome” value [1] is listed as “improve diarrhoea-predominant irritable bowel syndrome”, the “Inhibition of CYP3A4, CYP1A2 and CYP2D6” value [2] is listed as “inhibited” and the “Effect on thyroid hormone-induced diarrhoea” value [3] is listed as “effect was also observed”. The “Immunosuppressive effect and spleen weight” value [4] was “strong immunosuppressive effect and reduced spleen weight”, the “AUC0–36” value [5, 9] was 88.8 ng·h/mL and the Cmax [5, 9] was 29.2 ng/mL. The “AUC0–60” value [5, 10] was 305.8 ng·h/mL, the Cmax [5, 10] was 28.2 ng/mL and the “T cell subset levels” value [6] was “reduced levels of CD^4+ Th and CD^4+CXCR^5+ Tfh cells and an increased level of Foxp^3+ Tregs”. For the same compound, the “Metabolism by CYP3A4, CYP1A2 and CYP2D6” value [7] was “metabolized”, the AUC(0-t) ([8]; female, SD, rat, plasma, po, 0.4 g/kg, female rats, Day 1, low dose TAZF 0.4 g/kg by gavage, read-out: AUC0-t) was 122 ± 17.1 ng·h/mL and the Cmax ([8]; female, SD, rat, plasma, po, 0.4 g/kg, female rats, Day 1, low dose TAZF 0.4 g/kg by gavage, read-out: Cmax) was 149 ± 73 ng/mL. It also gave an AUC(0-t) ([8]; female, SD, rat, plasma, po, 0.4 g/kg, female rats, Day 28, low dose TAZF 0.4 g/kg by gavage, read-out: AUC0-t) of 838 ± 949 ng·h/mL, a Cmax ([8]; female, SD, rat, plasma, po, 0.4 g/kg, female rats, Day 28, low dose TAZF 0.4 g/kg by gavage, read-out: Cmax) of 324 ± 432 ng/mL and an AUC(0-t) ([8]; female, SD, rat, plasma, po, 3.7 g/kg, female rats, Day 1, high dose TAZF 3.7 g/kg by gavage, read-out: AUC0-t) of 306 ± 94.7 ng·h/mL. For the same compound, the Cmax ([8]; female, SD, rat, plasma, po, 3.7 g/kg, female rats, Day 1, high dose TAZF 3.7 g/kg by gavage, read-out: Cmax) was 219 ± 118 ng/mL, the AUC(0-t) ([8]; female, SD, rat, plasma, po, 3.7 g/kg, female rats, Day 28, high dose TAZF 3.7 g/kg by gavage, read-out: AUC0-t) was 153 ± 53.7 ng·h/mL and the Cmax ([8]; female, SD, rat, plasma, po, 3.7 g/kg, female rats, Day 28, high dose TAZF 3.7 g/kg by gavage, read-out: Cmax) was 23.8 ± 6.25 ng/mL. The AUC(0-t) ([8]; male, SD, rat, plasma, po, 0.4 g/kg, male rats, Day 1, low dose TAZF 0.4 g/kg by gavage, read-out: AUC0-t) was 1220 ± 389 ng·h/mL, the Cmax ([8]; male, SD, rat, plasma, po, 0.4 g/kg, male rats, Day 1, low dose TAZF 0.4 g/kg by gavage, read-out: Cmax) was 222 ± 180 ng/mL and the AUC(0-t) ([8]; male, SD, rat, plasma, po, 0.4 g/kg, male rats, Day 28, low dose TAZF 0.4 g/kg by gavage, read-out: AUC0-t) was 699 ± 644 ng·h/mL. The Cmax ([8]; male, SD, rat, plasma, po, 0.4 g/kg, male rats, Day 28, low dose TAZF 0.4 g/kg by gavage, read-out: Cmax) was 460 ± 276 ng/mL, the AUC(0-t) ([8]; male, SD, rat, plasma, po, 3.7 g/kg, male rats, Day 1, high dose TAZF 3.7 g/kg by gavage, read-out: AUC0-t) was 1860 ± 425 ng·h/mL and the Cmax ([8]; male, SD, rat, plasma, po, 3.7 g/kg, male rats, Day 1, high dose TAZF 3.7 g/kg by gavage, read-out: Cmax) was 219 ± 24.4 ng/mL. The AUC(0-t) ([8]; male, SD, rat, plasma, po, 3.7 g/kg, male rats, Day 28, high dose TAZF 3.7 g/kg by gavage, read-out: AUC0-t) was 608 ± 203 ng·h/mL, the Cmax ([8]; male, SD, rat, plasma, po, 3.7 g/kg, male rats, Day 28, high dose TAZF 3.7 g/kg by gavage, read-out: Cmax) was 136 ± 77.9 ng/mL and the “Systemic exposure after 28 days of administration vs single administration” value [8] was “much lower”.

In the case of `COc1cc2c(cc1OC)-c1cc3ccc(OC)c(OC)c3c[n+]1CC2` [palmatine], the “Metabolism by CYP3A4, CYP1A2 and CYP2D6” value [7] is given as “metabolized”, the AUC(0-t) [8, 11] is given as 38.00 ± 16.92 ng·h/mL and the Cmax [8, 11] is given as 46.60 ± 27.16 ng/mL. The Cmax mean [8, 12] was 46.60 ng/mL, the T1/2 mean [8, 12] was 5.18 h and the Tmax mean [8, 12] was 0.50 h. For the same compound, the AUC(0-t) [8, 13] was 18.08 ± 4.07 ng·h/mL, the Cmax [8, 13] was 27.93 ± 13.97 ng/mL and the Cmax mean [8, 14] was 27.93 ng/mL. For the same compound, the T1/2 mean [8, 14] was 5.96 h, the Tmax mean [8, 14] was 0.42 h and the AUC0-t mean [8, 15] was 90.31 ng·h/mL. The Cmax mean [8, 15] was 77.60 ng/mL, the T1/2 mean [8, 15] was 3.29 h and the Tmax mean [8, 15] was 0.83 h. It also gave an AUC(0-t) [8, 16] of 24.07 ± 12.21 ng·h/mL, a Cmax [8, 16] of 5.67 ± 2.58 ng/mL and a Cmax mean [8, 17] of 5.67 ng/mL. It also gave a T1/2 mean [8, 17] of 3.98 h, a Tmax mean [8, 17] of 0.83 h and an AUC(0-t) [8, 18] of 116.47 ± 138.20 ng·h/mL. It also gave a Cmax [8, 18] of 55.94 ± 72.88 ng/mL, a Cmax mean [8, 19] of 55.94 ng/mL and a T1/2 mean [8, 19] of 80.32 h. For the same compound, the Tmax mean [8, 19] was 0.42 h, the AUC0-t mean [8, 20] was 14.65 ng·h/mL and the Cmax mean [8, 20] was 4.16 ng/mL. For the same compound, the T1/2 mean [8, 20] was 9.33 h, the Tmax mean [8, 20] was 1.33 h and the AUC(0-t) [8, 21] was 342.51 ± 66.62 ng·h/mL. The Cmax [8, 21] was 51.33 ± 17.52 ng/mL, the Cmax mean [8, 22] was 51.33 ng/mL and the T1/2 mean [8, 22] was 10.38 h. For the same compound, the Tmax mean [8, 22] was 3.33 h, the AUC(0-t) [8, 23] was 236.12 ± 103.55 ng·h/mL and the Cmax [8, 23] was 52.47 ± 52.73 ng/mL. The Cmax mean [8, 24] was 52.47 ng/mL, the T1/2 mean [8, 24] was 12.88 h and the Tmax mean [8, 24] was 3.33 h. It also gave an AUC0-t mean [8, 25] of 318.68 ng·h/mL, a Cmax mean [8, 25] of 71.53 ng/mL and a T1/2 mean [8, 25] of 26.57 h. It also gave a Tmax mean [8, 25] of 0.67 h, an AUC(0-t) [8, 26] of 110.18 ± 34.30 ng·h/mL and a Cmax [8, 26] of 32.93 ± 24.17 ng/mL. The Cmax mean [8, 27] was 32.93 ng/mL, the T1/2 mean [8, 27] was 11.01 h and the Tmax mean [8, 27] was 4.08 h. For the same compound, the AUC(0-t) [8, 28] was 36.98 ± 18.55 ng·h/mL, the Cmax [8, 28] was 67.20 ± 74.82 ng/mL and the Cmax mean [8, 29] was 67.20 ng/mL. It also gave a T1/2 mean [8, 29] of 12.22 h, a Tmax mean [8, 29] of 0.83 h and an AUC0-t mean [8, 30] of 102.21 ng·h/mL. It also gave a Cmax mean [8, 30] of 22.63 ng/mL, a T1/2 mean [8, 30] of 2.90 h and a Tmax mean [8, 30] of 12.00 h. The “Systemic exposure after 28 days of administration vs single administration” value [8] was “much lower”.
